In paper PMC13427755 (Nature Communications, 2026):
Where a SMILES comes first, the peptide text is derived from it.

Legend:
galectin-7 (GAL-7) = experiment: GAL7 ELISA in deep bronchial brushings (DBB); assay type: in vivo, human; conditions: for GAL7 in DBB, Δ from baseline, median (IQR): Day 14 minus screening
Excerpt: (§1) Bronchoscopists were instructed to obtain a total of 6 brushings from 3 of the basilar bronchial segments of the right lower lobe: the anterior basilar segment, the lateral basilar segment, and the posterior basilar segment. With the bronchoscope proximal to or within the orifice of the appropriate basilar segment, the brush sheath was to be passed out 5 cm beyond the subsegment orifice, and then the brush was fully extended an additional 1 cm for a total of 6 cm beyond the orifice of the subsegmental bronchus. At the desired depth, the sheath was to be gently pulled back and forward for 15 strokes to brush the small airways. The brushing process was repeated using any combination of the 3 basilar segments described above, at the discretion of the bronchoscopist, for a total of 6 six separate brush samples.
(§2) Protein isolation and preparation of DBB samples for ELISAs were performed as previously described[47] according to manufacturer’s instructions for COL1A1 (#ab210966, abcam), CXCL7 (#LS-F4967-1, LS Bio), GAL7 (#DY1339, R&D Systems), IL-11 (#DY218, R&D Systems), and TSLP (#DY1398, R&D Systems).
(§3) Descriptive statistics are reported as medians with interquartile ranges (IQR). The Hodges-Lehmann estimator was used for the median difference between groups (treatment minus placebo), with approximate 90% confidence intervals (asymmetric, exact level varied slightly with small n). Cliff’s delta was calculated as effect size using the formula δ = (2U / (n1 × n2)) − 1, with thresholds: |δ | <0.3 small effect, 0.3–0.5 medium effect, >0.5 large effect. […] No adjustment for multiplicity was performed, as these were pre-specified, hypothesis-driven exploratory analyses. All biomarker statistical analyses were conducted using GraphPad Prism Version v10.0.

[1] = tested on: thymic stromal lymphopoietin (TSLP); experiment: TSLP ELISA in deep bronchial brushings (DBB); assay type: in vivo, human; conditions: for TSLP in DBB, Δ from baseline, median (IQR): Day 14 minus screening
Excerpt: as §1, §2, §3

Healthy Adult Subjects = conditions: cited from earlier work
Protocol: Pivotal 28-day Good Laboratory Practice (GLP) toxicity studies were performed in rats and dogs. These studies were designed such that the high dose levels would achieve at least a 50-fold margin over the proposed high clinical dose as recommended in International Council for Harmonisation (ICH)-M3(R2) guidelines. […] These events were considered to be dose limiting and related to LTI-03. There was no evidence that the TEAEs in the 3 subjects described previously were secondary to an allergic response. In the 20 mg QD MAD cohorts there were mild decreases in FEV1 in two subjects that were not associated with TEAEs. These were not considered to be dose limiting. There were no serious adverse events (SAEs). All TEAEs were resolved 7 days after the treatment period. Further details can be ...

[2] = tested on: phosphorylated (p) AKT over total AKT; experiment: AKT/pAKT in PBMCs, MSD-ECL assay; assay type: in vivo, human
Protocol: Blood samples for biomarker assessments in PBMCs and platelet-rich plasma were collected prior to the initial dose and on day 14 following the last dose. Following optimization for detection of analytes in IPF matrices, meso-scale discovery electrochemiluminescence (MSD-ECL) assays were performed at BioAgylitix for SP-D (#K1519XR-2, MSD) in plasma and AKT/pAKT (#K15100D-1, MSD) in PBMCs according to manufacturer’s instructions.
as §3

CC(C)[C@H](NC(=O)[C@@H](NC(=O)[C@H](Cc1ccccc1)NC(=O)[C@@H](NC(=O)[C@@H](NC(=O)[C@@H](N)Cc1ccccc1)[C@@H](C)O)[C@@H](C)O)[C@@H](C)O)C(=O)N[C@H](C(=O)O)[C@@H](C)O [LTI-03] (H-FTTFTVT-OH; N-terminus and C-terminus assumed)
GAL7 in DBB, Δ from baseline, median (IQR) (galectin-7 (GAL-7); 5 mg/day, N = 8): 250.8575 pg/mg protein | GAL7 in DBB, median difference vs placebo (Hodges-Lehmann) (galectin-7 (GAL-7); 5 mg/day, N = 8 vs pooled placebo N = 6, one-tailed Mann-Whitney p = 0.0709): −4730 pg/mg protein | GAL7 in DBB, Δ from baseline, median (IQR) (galectin-7 (GAL-7); 10 mg/day, N = 9): −726.395 pg/mg protein | GAL7 in DBB, median difference vs placebo (Hodges-Lehmann) (galectin-7 (GAL-7); 10 mg/day, N = 9 vs pooled placebo N = 6, one-tailed Mann-Whitney p = 0.0332): −6048 pg/mg protein | TSLP in DBB, Δ from baseline, median (IQR) ([1]; 5 mg/day, N = 7): −2.106 pg/mg protein | TSLP in DBB, median difference vs placebo (Hodges-Lehmann) ([1]; 5 mg/day, N = 7 vs pooled placebo N = 6, one-tailed Mann-Whitney p = 0.0256): −19.66 pg/mg protein | TSLP in DBB, Δ from baseline, median (IQR) ([1]; 10 mg/day, N = 9): −2.09 pg/mg protein | TSLP in DBB, median difference vs placebo (Hodges-Lehmann) ([1]; 10 mg/day, N = 9 vs pooled placebo N = 6, one-tailed Mann-Whitney p = 0.0128): −19.07 pg/mg protein | tolerability, 3 lower dose MAD cohorts (Healthy Adult Subjects; healthy adults, 2.5 mg QD, 5 mg QD, 5 mg BID inhaled for up to 14 days, ref study LTI-03-1001): well tolerated | TEAEs secondary to pulmonary airflow limitation, 40 mg QD MAD cohort (Healthy Adult Subjects; in vivo): dose limiting | %p-AKT in PBMCs, Cliff's delta vs placebo ([2]; 5 mg/day): −0.33 | %p-AKT in PBMCs, Cliff's delta vs placebo ([2]; 10 mg/day): −0.13 | phosphorylated (p) AKT over total AKT levels in PBMCs ([2]; 5 and 10 mg/day vs placebo, 14 days): did not change
